According to patent US20240279687A1, “PEPTIDE NUCLEIC ACIDS FOR SPATIOTEMPORAL CONTROL OF CRISPR-CAS BINDING” (Yale University, priority 2021, published 2024):

Experiments:
[1] = target: T1, dCas9-p300 / MYOD1 sgRNA (UniProt Q09472+Q99ZW2, D10A/H840A); experiment: ChIP-qPCR of H3K27ac occupancy at the MYOD1 promoter region; type: cell-based, human; details: 24 and 48 hours after PNA treatment (250 pmol), subsequent increase at 240 hours
T1 construct: P2A-PuroR (C)
Experimental: K562 cells (6×10^6 cells) were diluted to 0.4×10^6 cells/mL and cross-linked with a final concentration of 1% formaldehyde (Sigma-Aldrich, 252549) for each IP. Chromatin was prepared and sheared according to manufacturer protocol using SimpleChIP Enzymatic Chromatin IP Kit (Cell Signaling, #9003) and QSONICA Q800R3 sonicator for nuclear lysis. For each condition, 10 μg of chromatin was incubated with 3 μg of H3K27ac antibody (abcam ab4729) rotating overnight at 4° C. Chromatin was incubated with 30 μL of protein G magnetic beads (Cell Signaling, #70024) and washed, eluted, reverse cross-linked, and purified according to manufacturer protocol. ChIP-qPCR reactions were conducted in technical triplicate for 2% input and IP samples using a StepOnePLUS Real-Time PCR System (Applied Biosystems), SimpleChIP Universal qPCR Mastermix (Cell Signaling, #88989), and MYOD1 target specific primers (Table 8). Percent occupancy values were calculated by percent input method from 2% input samples for each replicate.

[2] = target: T1, dCas9-p300 / MYOD1 sgRNA; experiment: dCas9-p300 MYOD1 expression in stable K562 cells, RT-qPCR; type: cell-based, human; details: 250 pmol PNA
Experimental: Stable K562-pLV-dCas9-p300 line was established from lentivirus generated from pLV-dCas9-p300-P2A-PuroR plasmid (Addgene: #83889) and Invitrogen Virapower packaging plasmids in 293FT cells (Invitrogen, R70007) and puromycin selection (2 μg/mL, Gibco). Lines were further transduced with lentivirus similarly generated with pLV-U6-UbC-eGFP-P2A-Bsr plasmids (Addgene: #83925) containing MYOD promoter targeted sgRNA sequences with blasticidin selection (5 μg/mL, Gibco, A1113903, Table 4).
6×10^6 stable dCas9-p300/MYOD1 sgRNA expressing K562 cells (Addgene #83889, Addgene #83925), were nucleofected with 250 pmol of specified PNA (non-targeting BFP or POU5F1) using a Lonza 4D nucleofector. At each specified time point 500 μL of cells were removed from each condition flask, spun down, and frozen. […] Expression relative to the untreated parent K562 line was recorded as fold-change and calculated using the ΔΔCT method. […]
For RNA extractions 0.5×10^6 K562 cells were spun down, washed once with PBS, homogenized using QIAshredder columns (QIAGEN 79656) and processed using QIAGEN RNeasy mini kits (74106) before eluting in 50 μL of water. […] Expression relative to the untreated K562 parent line was recorded as fold-change and calculated from averaged CT values using the ΔΔCT method.

Substance: KKK-GCACGCCCTTTCCAAACCT-KKK (Three lysine residues flank each end, further chemistry not given here) [MYOD1 p300 PNA]
- H3K27ac occupancy at the MYOD1 promoter region [1]: significant decrease
- time by which epigenetic-mediated MYOD1 gene upregulation was driven down [2]: ≤ 24 h
- time by which expression returned to the fully upregulated state [2]: ≤ 168 h
